The values that follow come from PubChem BioAssay (NCI).

Test systems include SNB-19 CNS; U251 CNS; MDA-MB-435; UO-31 renal; HCT-15 colon; MDA-MB-231 breast; SK-OV-3 ovarian; NCI-H460 lung; SK-MEL-2 melanoma; SN12C renal; SNB-75 CNS; COLO 205 colon; HCT-116 colon; NCI-H226 lung; NCI-H522 lung; OVCAR-8 ovarian.
What all share (assay): NCI tumour cell line growth inhibition, 48 h

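A five-concentration, 48-hour dose response in 96-well plates underlies each endpoint, interpolated linearly between surrounding concentrations. At the TGI there is no net growth.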 Bounds are passed on as bounds.

On to `CC(C)=NOC(=O)Nc1cccc2c1OCO2`, for which the TGI in the assay with SNB-19 CNS, with U251 CNS, in the assay with MDA-MB-435, with UO-31 renal, with HCT-15 colon and in the assay on MDA-MB-231 breast was more than 100 µM each time. Besides, the TGI in the assay with SK-OV-3 ovarian, in the assay on NCI-H460 lung, with SK-MEL-2 melanoma, with SN12C renal, in the assay with SNB-75 CNS and with COLO 205 colon was more than 100 µM throughout. In addition, the TGI in the assay on HCT-116 colon, in the assay on NCI-H226 lung, in the assay on NCI-H522 lung and in the assay with OVCAR-8 ovarian was more than 100 µM each time.

For `CC(C)C(NC(=O)C(Cc1ccccc1)NC(=O)[C@H]1CCC[C@H]1NC(=O)C(Cc1ccc(OC(C)(C)C)cc1)NC(=O)OC(C)(C)C)C(N)=O` (stereo not given in full), the TGI is 28.3 µM in the assay with U251 CNS; 34.3 µM in the assay on MDA-MB-435; more than 100 µM in the assay on UO-31 renal; more than 100 µM with HCT-15 colon; 49.5 µM with MDA-MB-231 breast; 57.6 µM with SK-OV-3 ovarian. Moreover, the TGI in the assay on NCI-H460 lung turned out to be 38.8 µM; in the assay with SK-MEL-2 melanoma it was 41.6 µM; in the assay on SN12C renal it was 35.2 µM; with SNB-75 CNS, 29.2 µM; with COLO 205 colon, 36.9 µM; with HCT-116 colon, 32.1 µM. Moreover, the TGI in the assay with NCI-H226 lung is 37.8 µM; in the assay on NCI-H522 lung, 30.7 µM; in the assay on OVCAR-8 ovarian, 34.9 µM.

As for `CN(C)CN(C)c1nc(N(C)C)nc(N(C)CN(C)C)n1`, the TGI was more than 100 µM in the assay on SNB-19 CNS; more than 100 µM in the assay with U251 CNS; more than 100 µM in the assay on UO-31 renal; 68.2 µM with HCT-15 colon; more than 100 µM in the assay with SK-OV-3 ovarian; more than 100 µM with NCI-H460 lung. Further, the TGI is 42.6 µM with SK-MEL-2 melanoma; more than 100 µM in the assay on SN12C renal; more than 100 µM with SNB-75 CNS; 61.6 µM with COLO 205 colon; more than 100 µM in the assay with HCT-116 colon; more than 100 µM with NCI-H226 lung. Further, the TGI with NCI-H522 lung and in the assay on OVCAR-8 ovarian was more than 100 µM in each case.

On to `CCOC(=O)C(C)N1C(=O)c2ccccc2S1(=O)=O` (stereo not given), for which the TGI in the assay on SNB-19 CNS, in the assay with U251 CNS, in the assay on UO-31 renal, in the assay on HCT-15 colon, with SK-OV-3 ovarian and with NCI-H460 lung was more than 100 µM each time. Also, the TGI in the assay with SK-MEL-2 melanoma, in the assay on SN12C renal, with SNB-75 CNS, with COLO 205 colon, with HCT-116 colon and with NCI-H226 lung was more than 100 µM in each case. The TGI in the assay on NCI-H522 lung and with OVCAR-8 ovarian was more than 100 µM each time.

Turning to `CN1CCC2(CC1)C(=NC1CCCCC1)NC(=O)N2c1ccccc1`, the TGI in the assay on SNB-19 CNS, in the assay with U251 CNS, in the assay on UO-31 renal, in the assay with HCT-15 colon, in the assay on MDA-MB-231 breast and with SK-OV-3 ovarian was more than 100 µM throughout. Besides, the TGI with NCI-H460 lung, in the assay on SN12C renal, in the assay with SNB-75 CNS, in the assay on COLO 205 colon, with HCT-116 colon and in the assay on NCI-H226 lung was more than 100 µM throughout. The same compound showed a TGI with OVCAR-8 ovarian of more than 100 µM.

On to `CN/N=C(\C(=O)Nc1ccc(C)c(C)c1)C(C(=O)OC)c1nc2ccc([N+](=O)[O-])cc2[nH]c1=O` (stereo not given), for which the TGI in the assay on SNB-19 CNS, in the assay with U251 CNS, in the assay on UO-31 renal, in the assay with HCT-15 colon, in the assay with SK-OV-3 ovarian and with NCI-H460 lung was more than 100 µM in each case. In addition, the TGI in the assay with SK-MEL-2 melanoma, in the assay with SN12C renal, in the assay on SNB-75 CNS, with COLO 205 colon, with HCT-116 colon and in the assay with NCI-H226 lung was more than 100 µM in each case. For the same compound, the TGI in the assay on NCI-H522 lung is 70.9 µM; in the assay with OVCAR-8 ovarian it was more than 100 µM.

On to `Cc1cc(=O)oc2c(CNC(CC(C)C)C(=O)O)c(O)ccc12` (stereo not given), for which the TGI in the assay on SNB-19 CNS, with U251 CNS, with MDA-MB-435, in the assay with UO-31 renal, with HCT-15 colon and in the assay with MDA-MB-231 breast was more than 100 µM throughout. Moreover, the TGI in the assay on SK-OV-3 ovarian, with NCI-H460 lung, in the assay with SK-MEL-2 melanoma, in the assay with SN12C renal, in the assay on SNB-75 CNS and in the assay with COLO 205 colon was more than 100 µM in each case. Moreover, the TGI with HCT-116 colon, in the assay on NCI-H226 lung, in the assay on NCI-H522 lung and with OVCAR-8 ovarian was more than 100 µM in each case.

As to `CCCCC[C@H]1CCCCCCCCCC(=O)OC2C(O[C@@H]3OC(C)[C@H](OC(=O)[C@@H](C)CC)C(O[C@@H]4OC(C)[C@H](O)C(O)[C@@H]4O)[C@@H]3OC(=O)[C@H](C)CC)[C@H](OC3C(O)[C@@H](O)C(C)O[C@H]3O1)OC(CO)[C@H]2O` (stereo not given in full), the TGI with SNB-19 CNS is 32.1 µM; in the assay on U251 CNS it was 32.1 µM; in the assay on UO-31 renal it was 30.8 µM; in the assay with HCT-15 colon, 30.6 µM; in the assay with MDA-MB-231 breast it was 30.7 µM; in the assay with SK-OV-3 ovarian, 29.3 µM. The TGI in the assay on NCI-H460 lung was 32.5 µM; in the assay on SK-MEL-2 melanoma, 30.5 µM; in the assay on SN12C renal, 31.3 µM; in the assay on COLO 205 colon, 25 µM; in the assay on HCT-116 colon it was 29.7 µM; in the assay on NCI-H522 lung it was 34.2 µM. The compound also returned a TGI in the assay with OVCAR-8 ovarian of 35.5 µM.

In the case of `CN1CN(C(=O)N2CN(C)C(=O)N(C)C2)CN(C)C1=O`, the TGI in the assay with SNB-19 CNS, with UO-31 renal, in the assay with HCT-15 colon, in the assay with SK-OV-3 ovarian, with SK-MEL-2 melanoma and in the assay with SN12C renal was more than 100 µM each time. The TGI in the assay with SNB-75 CNS, with COLO 205 colon, in the assay on HCT-116 colon, in the assay with NCI-H226 lung, with NCI-H522 lung and in the assay with OVCAR-8 ovarian was more than 100 µM throughout.

Regarding `CCOC(=O)C1=C(C)N(C2OC(COC(=O)c3ccccc3)C(OC(=O)c3ccccc3)C2OC(=O)c2ccccc2)C(=S)NC1c1ccccc1` (stereo not given), the TGI in the assay on SNB-19 CNS was more than 100 µM; with U251 CNS, more than 100 µM; with UO-31 renal it was 99.4 µM; with SK-OV-3 ovarian, more than 100 µM; with NCI-H460 lung, more than 100 µM; in the assay with SK-MEL-2 melanoma it was more than 100 µM. For the same compound, the TGI with SN12C renal is more than 100 µM; in the assay on SNB-75 CNS, more than 100 µM; in the assay on COLO 205 colon, more than 100 µM; in the assay on HCT-116 colon, more than 100 µM; in the assay with NCI-H226 lung, more than 100 µM; in the assay with NCI-H522 lung, 66.1 µM. Besides, in the assay on OVCAR-8 ovarian, the TGI was more than 100 µM.
